Common to all, as to assay: growth of human tumour cells (NCI), 48 h
For assay [1], the system named is SK-MEL-28.
Assay [2] relates to SK-MEL-5.
Assay [3] deals with ACHN.
For assay [4], the system named is IGROV-1.
In assay [5] the test system is RPMI-8226.
Assay [6] concerns LOX IMVI.
The test system of assay [7] is MCF7.
The subject of assay [8] is HOP-92.
Assay [9] has as its system TK-10.
Assay [10] deals with BT-549.
Assay [11] deals with A549.
For assay [12], the system named is SF-268.
The subject of assay [13] is HOP-62.
The test system of assay [14] is HT-29.
Assay [15] concerns NCI-H522.
Assay [16] concerns NCI-H23.
For assay [17], the system named is M14.
For assay [18], the system named is HL-60.
In assay [19] the test system is T47D.

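Step 1: Grow cells in 96-well plates. Step 2: Expose to compound for 48 hours at 5 concentrations. Step 3: Interpolate endpoints linearly; if unreached, use highest concentration. GI50 = concentration required for 50% inhibition of growth.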 The source made the active and inactive calls. Cut-off read from the data, not from the text of the source: active = GI50 up to about 1.1 µM and inactive = higher. Where a SMILES comes first, the peptide text is derived from it. The star is where a group is joined. ONb = O=[N+]([O-])c1ccc(CO*)cc1; Boc = CC(C)(C)OC(=O)*

Consider `Cc1c(N=C(S)Nc2ccc(Cl)cc2)c(=O)n(-c2ccccc2)n1C`, for which the GI50 in [1], in assay [2], in [3], in assay [4], in assay [5] and in assay [6] was > 100 µM (inactive) each time. The GI50 in assay [7], in assay [8], in assay [9], in assay [10], in assay [11] and in assay [12] was > 100 µM (inactive) each time. The GI50 in assay [13], in assay [14], in assay [15], in [16], in assay [17] and in assay [18] was > 100 µM (inactive) each time.
In the case of `COc1cccc([C@@H]2CC(=O)c3cc4c(cc3N2)OCO4)c1`, the GI50 is > 100 µM (inactive) in [1]; 96.8 µM (inactive) in [2]; > 100 µM (inactive) in assay [3]; 76.4 µM (inactive) in [5]; > 100 µM (inactive) in [6]; > 100 µM (inactive) in [7]. The GI50 in assay [8], in [19], in [9], in assay [11], in [12] and in assay [13] was > 100 µM (inactive) each time. The GI50 in assay [17] is > 100 µM (inactive).
Regarding `CC1[C@@H](OCc2ccccc2)COC(=O)N1Cc1ccccc1` (stereo not given in full), the GI50 in assay [1] is > 100 µM (inactive); in assay [2] it was 69.5 µM (inactive); in assay [3], > 100 µM (inactive); in assay [4] it was > 100 µM (inactive); in assay [5] it was 52.2 µM (inactive); in assay [6], > 100 µM (inactive). Besides, the GI50 in [7] is 81.8 µM (inactive); in assay [8] it was 5.27 µM (inactive); in assay [9], > 100 µM (inactive); in assay [11], 85.9 µM (inactive); in [12] it was > 100 µM (inactive); in [13] it was > 100 µM (inactive). Further, the GI50 in assay [14] is > 100 µM (inactive); in [16] it was 52.1 µM (inactive); in assay [17], > 100 µM (inactive).
Regarding `O=c1ccn2n1CCCCC2`, the GI50 in assay [1], in [2], in assay [3], in [4], in assay [5] and in assay [6] was > 100 µM (inactive) throughout. The GI50 is > 100 µM (inactive) in assay [8]; 58.2 µM (inactive) in assay [19]; > 100 µM (inactive) in [9]; > 100 µM (inactive) in assay [11]; > 100 µM (inactive) in assay [12]; > 100 µM (inactive) in assay [13]. Moreover, the GI50 in assay [14], in assay [15], in [16], in assay [17] and in [18] was > 100 µM (inactive) each time.
Consider `CSc1ncnc2c1ncn2CCC(=O)O`, for which the GI50 in [1], in [2], in assay [3], in assay [4], in [5] and in [6] was > 100 µM (inactive) in each case. Moreover, the GI50 in [7], in assay [8], in assay [9], in [11], in assay [12] and in [13] was > 100 µM (inactive) in each case. For the same molecule, the GI50 in assay [14], in assay [15], in assay [16], in assay [17] and in [18] was > 100 µM (inactive) throughout.
Turning to `O=[N+]([O-])c1ccc(S(=O)(=O)n2c3ccc(Br)cc3c3nc4ccccc4nc32)cc1`, the GI50 in assay [1], in [2], in assay [3], in [4], in assay [5] and in [6] was > 100 µM (inactive) throughout. The GI50 in assay [8], in assay [19], in assay [9], in [11], in assay [12] and in [13] was > 100 µM (inactive) each time. Also, the GI50 in [14], in assay [15], in [16] and in assay [17] was > 100 µM (inactive) in each case.
For the molecule `COC(=O)c1ccccc1CC(Cc1ccc2c(c1)CCC2)C(=O)OC` (stereo not given), the GI50 in assay [1] is > 100 µM (inactive); in [2], 32.4 µM (inactive); in assay [3] it was > 100 µM (inactive); in [4], > 100 µM (inactive); in [5] it was > 100 µM (inactive); in [6], > 100 µM (inactive). Besides, the GI50 in [7], in [8], in assay [19], in assay [9], in [11] and in assay [12] was > 100 µM (inactive) in each case. Besides, the GI50 is > 100 µM (inactive) in [13]; 50.6 µM (inactive) in assay [14]; 66.1 µM (inactive) in [15]; > 100 µM (inactive) in assay [16]; > 100 µM (inactive) in [17]; 45.9 µM (inactive) in [18].
On to `CN(c1ccc(Cl)cc1)S(=O)(=O)c1cccc([N+](=O)[O-])c1`, for which the GI50 in assay [1] is 95.9 µM (inactive); in assay [2], 27.4 µM (inactive); in [3], 99.1 µM (inactive); in assay [4] it was > 100 µM (inactive); in [5] it was 39.1 µM (inactive); in assay [6], 41.9 µM (inactive). The GI50 was 56.1 µM (inactive) in assay [7]; > 100 µM (inactive) in assay [9]; 32.7 µM (inactive) in [10]; > 100 µM (inactive) in [11]; 66.7 µM (inactive) in [12]; 89.3 µM (inactive) in [13]. Moreover, the GI50 in assay [14] was 22.5 µM (inactive); in assay [15], 65.5 µM (inactive); in assay [16], 34.7 µM (inactive); in [17], 43.4 µM (inactive); in assay [18] it was > 10 µM (inactive).
For `CC(C)(C)n1c(=O)n(-c2ccccc2)n(C(C)(C)C)c1=O`, the GI50 in assay [1], in [2], in [3], in assay [4], in assay [6] and in assay [7] was > 100 µM (inactive) throughout. Further, the GI50 in [8], in assay [9], in [10], in [11], in [13] and in assay [14] was > 100 µM (inactive) in each case. The GI50 in assay [16], in assay [17] and in [18] was > 100 µM (inactive) each time.
Consider `O=[N+]([O-])c1ccc2nc(Nc3ccccc3)c(Nc3ccccc3)nc2c1`, for which the GI50 is 2.45 µM (inactive) in [1]; 1.49 µM (inactive) in assay [2]; 0.681 µM (active) in assay [3]; 1.58 µM (inactive) in assay [4]; 2.61 µM (inactive) in [5]; 1.58 µM (inactive) in assay [6]. Further, the GI50 in assay [8] was 1.63 µM (inactive); in assay [19] it was 2.63 µM (inactive); in [9], 2.83 µM (inactive); in assay [11], 0.349 µM (active); in assay [12], 1.62 µM (inactive); in assay [13] it was 1.19 µM (inactive). Moreover, the GI50 in assay [14] was 0.463 µM (active); in assay [15] it was 0.369 µM (active); in assay [16], 1.17 µM (inactive); in assay [18] it was 9.31 µM (inactive).
As to `CC(C)CC(NC(=O)OC(C)(C)C)C(=O)NC(CCC(=O)OCc1ccc([N+](=O)[O-])cc1)C(=O)OCc1ccc([N+](=O)[O-])cc1` (stereo not drawn) (Boc-Leu-Glu(ONb)-ONb; configuration not given here), the GI50 in assay [1] is 15.8 µM (inactive); in [3], 46.6 µM (inactive); in assay [4], 24.4 µM (inactive); in [5], 22.4 µM (inactive); in assay [6], 25.2 µM (inactive); in [7], > 10 µM (inactive). Also, the GI50 was 56.4 µM (inactive) in [8]; 92.3 µM (inactive) in assay [19]; 28.6 µM (inactive) in assay [9]; 18.4 µM (inactive) in [12]; > 100 µM (inactive) in assay [13]; 21.2 µM (inactive) in assay [14]. The GI50 in [15] was 4.57 µM (inactive); in [16], 20 µM (inactive); in assay [17], 26.2 µM (inactive); in [18] it was 4.05 µM (inactive).
Consider `CC(C)CCC(=O)c1ccoc1` [PERILLAKETONE], for which the GI50 in [1], in assay [2], in assay [3], in assay [4], in assay [5] and in assay [6] was > 100 µM (inactive) throughout. Further, the GI50 in assay [7], in [8], in assay [19], in assay [9], in [11] and in [12] was > 100 µM (inactive) in each case. The GI50 in assay [13], in assay [14], in assay [16], in assay [17] and in assay [18] was > 100 µM (inactive) each time.

The values above are taken from ChEMBL document CHEMBL1201862, “PubChem BioAssay data set” (2004).
